Measured values taken from patent US20230114728A1 (Venatorx Pharmaceuticals, Inc., priority 2019, published 2023).
Converted amounts (≈) assume the structure as drawn.

How the values were obtained:
Assay type in all cases: cell-based
A. baumannii ATCC 19606 = assay: Broth microdilution MIC in CAMHB; details: Acinetobacter baumannii, ATCC19606; MHB; read-out: Minimum Inhibitory Concentration, A. baumannii ATCC 19606
Method in brief: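 Per CLSI broth microdilution, colonies were grown 3-5 h at 37° C in cation-adjusted Mueller Hinton broth, then diluted to a starting inoculum of 2-8×10^5 CFU/mL against 2-fold serial compound dilutions. Plates were incubated 16-20 h at 37° C, and MIC was read visually as the lowest concentration with no growth.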

E. coli 901C = assay: Broth microdilution MIC in CAMHB; details: Escherichia coli; E. coli 901C (hyper-permeable); MHB; read-out: Minimum Inhibitory Concentration, E. coli 901C
Method in brief: (§1)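 Hyper-permeable or efflux-deficient strains serve to probe outer-membrane penetration. Growth inhibition is scored visually after 16-20 h at 37° C in CAMHB, starting from 2-8×10^5 CFU/mL.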

E. coli AG100A = assay: Broth microdilution MIC in CAMHB; details: Escherichia coli, read-out: Minimum Inhibitory Concentration, E. coli AG100A
Method in brief: as §1

E. coli AG100 = assay: Broth microdilution MIC in CAMHB; details: Escherichia coli; E. coli AG100 (wild-type parent); MHB; read-out: Minimum Inhibitory Concentration, E. coli AG100
Method in brief: as §1

E. coli ATCC 25922 = assay: Broth microdilution MIC in CAMHB; details: Escherichia coli, ATCC25922; E. coli ATCC 25922; MHB; read-out: Minimum Inhibitory Concentration, E. coli 25922
Method in brief: as §1

E. coli D22 = assay: Broth microdilution MIC in CAMHB; details: Escherichia coli; E. coli D22 (hyper-permeable); MHB; read-out: Minimum Inhibitory Concentration, E. coli D22
Method in brief: as §1

[1] = tested on: K. pneumoniae 848844 producing SHV-11 and KPC-2; assay: Broth microdilution MIC in CAMHB; details: Klebsiella pneumoniae, read-out: Minimum Inhibitory Concentration, K. pneumoniae 848844
Method in brief: as §1

[2] = tested on: K. pneumoniae SI-117 producing VIM-1; assay: Broth microdilution MIC in CAMHB; details: Klebsiella pneumoniae, read-out: Minimum Inhibitory Concentration, K. pneumoniae SI-117
Method in brief: as §1

[3] = tested on: K. pneumoniae UMM producing SHV-5 and KPC-2; assay: Broth microdilution MIC in CAMHB; details: Klebsiella pneumoniae, read-out: Minimum Inhibitory Concentration, K. pneumoniae UMM
Method in brief: as §1

[4] = tested on: P. aeruginosa (ΔmexAB-oprM); assay: Broth microdilution MIC in CAMHB; details: Pseudomonas aeruginosa, read-out: Minimum Inhibitory Concentration, P. aeruginosa ΔmexAB-OprM
Method in brief: as §1

P. aeruginosa ATCC 27853 = assay: Broth microdilution MIC in CAMHB; details: Pseudomonas aeruginosa, ATCC27853; MHB; read-out: Minimum Inhibitory Concentration, P. aeruginosa ATCC 27853
Method in brief: as §1

P. aeruginosa ATCC 35151 = assay: Broth microdilution MIC in CAMHB; details: Pseudomonas aeruginosa, ATCC35151; MHB; hyper-permeable strain; read-out: Minimum Inhibitory Concentration, P. aeruginosa ATCC 35151
Method in brief: as §1

N. gonorrhoeae WHO Q = assay: Liquid broth MIC in Fastidious broth; details: Neisseria gonorrhoeae, read-out: Minimum Inhibitory Concentration, N. gonorrhoeae WHO Q
Method in brief: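 Mosaic-PBP2 strains grown 24 h on chocolate agar (36 °C, 5% CO2), then direct-suspended in saline and OD600-adjusted. Twofold compound dilutions in Fastidious broth inoculated at 5×10^5 CFU/mL and incubated ~24 h at 36 °C, 5% CO2. MIC read visually as lowest concentration with <10% growth versus full-growth wells.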

| SMILES | MIC (A. baumannii ATCC 19606) [µg/mL] | MIC (E. coli 901C) [µg/mL] | MIC (E. coli AG100A) [µg/mL] | MIC (E. coli AG100) [µg/mL] | MIC (E. coli ATCC 25922) [µg/mL] | MIC (E. coli D22) [µg/mL] | MIC [1] [µg/mL] | MIC [2] [µg/mL] | MIC [3] [µg/mL] | MIC [4] [µg/mL] | MIC (P. aeruginosa ATCC 27853) [µg/mL] | MIC (P. aeruginosa ATCC 35151) [µg/mL] | MIC (N. gonorrhoeae WHO Q) [µg/mL] |
| --- | --- | --- | --- | --- | --- | --- | --- | --- | --- | --- | --- | --- | --- |
| CCN1CCN(C(=O)N[C@H](C(=O)N[C@H]2Cc3cccc(C(=O)O)c3OB2O)c2cc(Cl)c(O)cc2Cl)C(=O)C1=O (single isomer, unassigned) [Example 92] | > 128 | 2 to 4 (≈ 3.37 to 6.74 µM) | > 128 | > 128 | > 128 | > 128 | > 128 | > 128 | > 128 | > 128 | > 128 | 8 to 16 (≈ 13.5 to 27 µM) | > 64 |
| CCN1CCN(C(=O)NC(C(=O)N[C@H]2Cc3cccc(C(=O)O)c3OB2O)c2ccc(C(N)=O)c(O)c2)C(=O)C1=O (stereo partly drawn) [Example 45, (3R)-3-(2-(4-carbamoyl-3-hydroxyphenyl)-2-(4-ethyl-2,3-dioxopiperazine-1-carboxamido)acetamido)-2-hydroxy-3,4-dihydro-2H-benzo[e][1,2]oxaborinine-8-carboxylic acid] | > 128 | 2 to 4 (≈ 3.53 to 7.05 µM) | 2 to 4 (≈ 3.53 to 7.05 µM) | 32 to 64 (≈ 56.4 to 113 µM) | 32 to 64 (≈ 56.4 to 113 µM) | < 0.25 | > 128 | > 128 | 32 to 64 (≈ 56.4 to 113 µM) | 2 to 4 (≈ 3.53 to 7.05 µM) | > 128 | < 0.25 | 16 to 32 (≈ 28.2 to 56.4 µM) |
| NC(=O)c1ccc(C(NC(=O)N2CCN(CCF)C(=O)C2=O)C(=O)N[C@H]2Cc3cccc(C(=O)O)c3OB2O)cc1O (stereo partly drawn) [Example 46, (3R)-3-(2-(4-carbamoyl-3-hydroxyphenyl)-2-(4-(2-fluoroethyl)-2,3-dioxopiperazine-1-carboxamido)acetamido)-2-hydroxy-3,4-dihydro-2H-benzo[e][1,2]oxaborinine-8-carboxylic acid] | > 128 | 2 to 4 (≈ 3.42 to 6.83 µM) | 2 to 4 (≈ 3.42 to 6.83 µM) | 32 to 64 (≈ 54.7 to 109 µM) | 32 to 64 (≈ 54.7 to 109 µM) | < 0.25 | > 128 | 32 to 64 (≈ 54.7 to 109 µM) | 32 to 64 (≈ 54.7 to 109 µM) | 2 to 4 (≈ 3.42 to 6.83 µM) | > 128 | < 0.25 | 16 to 32 (≈ 27.3 to 54.7 µM) |
| NCCCN1CCN(C(=O)NC(C(=O)N[C@H]2Cc3cccc(C(=O)O)c3OB2O)c2ccc(C(N)=O)c(O)c2)C(=O)C1=O (stereo partly drawn) [Example 47, (3R)-3-(2-(4-(3-aminopropyl)-2,3-dioxopiperazine-1-carboxamido)-2-(4-carbamoyl-3-hydroxyphenyl)acetamido)-2-hydroxy-3,4-dihydro-2H-benzo[e][1,2]oxaborinine-8-carboxylic acid] | > 128 | 8 to 16 (≈ 13.4 to 26.8 µM) | 2 to 4 (≈ 3.35 to 6.71 µM) | > 128 | > 128 | 2 to 4 (≈ 3.35 to 6.71 µM) | > 128 | > 128 | > 128 | 2 to 4 (≈ 3.35 to 6.71 µM) | 32 to 64 (≈ 53.7 to 107 µM) | < 0.25 | > 64 |
| CCN1CCN(C(=O)NC(C(=O)N[C@H]2Cc3cccc(C(=O)O)c3OB2O)c2ccc(C(=O)O)c(OC)c2)C(=O)C1=O (stereo partly drawn) [Example 48, (3R)-3-(2-(4-carboxy-3-methoxyphenyl)-2-(4-ethyl-2,3-dioxopiperazine-1-carboxamido)acetamido)-2-hydroxy-3,4-dihydro-2H-benzo[e][1,2]oxaborinine-8-carboxylic acid] | > 128 | 2 to 4 (≈ 3.43 to 6.87 µM) | 8 to 16 (≈ 13.7 to 27.5 µM) | > 128 | 32 to 64 (≈ 55 to 110 µM) | < 0.25 | > 128 | > 128 | > 128 | 8 to 16 (≈ 13.7 to 27.5 µM) | > 128 | 0.5 to 1 (≈ 0.859 to 1.72 µM) | 4 to 8 (≈ 6.87 to 13.7 µM) |
| CCN1CCN(C(=O)NC(C(=O)N[C@H]2Cc3cccc(C(=O)O)c3OB2O)c2cccc(O)c2)C(=O)C1=O (stereo partly drawn) [Example 68, (3R)-3-(2-(4-ethyl-2,3-dioxopiperazine-1-carboxamido)-2-(3-hydroxyphenyl)acetamido)-2-hydroxy-3,4-dihydro-2H-benzo[e][1,2]oxaborinine-8-carboxylic acid] | > 128 | < 0.25 | 2 to 4 (≈ 3.81 to 7.63 µM) | 32 to 64 (≈ 61 to 122 µM) | 32 to 64 (≈ 61 to 122 µM) | 2 to 4 (≈ 3.81 to 7.63 µM) | > 128 | 32 to 64 (≈ 61 to 122 µM) | 32 to 64 (≈ 61 to 122 µM) | 2 to 4 (≈ 3.81 to 7.63 µM) | > 128 | 0.5 to 1 (≈ 0.954 to 1.91 µM) | > 64 |
| CCN1CCN(C(=O)NC(C(=O)N[C@H]2Cc3cccc(C(=O)O)c3OB2O)c2ccc(O)cc2O)C(=O)C1=O (stereo partly drawn) [Example 69, (3R)-3-(2-(2,4-dihydroxyphenyl)-2-(4-ethyl-2,3-dioxopiperazine-1-carboxamido)acetamido)-2-hydroxy-3,4-dihydro-2H-benzo[e][1,2]oxaborinine-8-carboxylic acid] | > 128 | < 0.25 | 2 to 4 (≈ 3.7 to 7.4 µM) | 32 to 64 (≈ 59.2 to 118 µM) | 32 to 64 (≈ 59.2 to 118 µM) | 2 to 4 (≈ 3.7 to 7.4 µM) | 32 to 64 (≈ 59.2 to 118 µM) | 32 to 64 (≈ 59.2 to 118 µM) | 32 to 64 (≈ 59.2 to 118 µM) | 32 to 64 (≈ 59.2 to 118 µM) | > 128 | 8 to 16 (≈ 14.8 to 29.6 µM) | > 64 |
| CCN1CCN(C(=O)NC(C(=O)N[C@H]2Cc3cccc(C(=O)O)c3OB2O)c2ccc(O)cc2OC)C(=O)C1=O (stereo partly drawn) [Example 70, (3R)-3-(2-(4-ethyl-2,3-dioxopiperazine-1-carboxamido)-2-(4-hydroxy-2-methoxyphenyl)acetamido)-2-hydroxy-3,4-dihydro-2H-benzo[e][1,2]oxaborinine-8-carboxylic acid] | > 128 | 0.5 to 1 (≈ 0.902 to 1.8 µM) | 2 to 4 (≈ 3.61 to 7.22 µM) | > 128 | > 128 | 8 to 16 (≈ 14.4 to 28.9 µM) | > 128 | > 128 | > 128 | 8 to 16 (≈ 14.4 to 28.9 µM) | > 128 | 8 to 16 (≈ 14.4 to 28.9 µM) | > 64 |
| CCN1CCN(C(=O)NC(C(=O)N[C@H]2Cc3cccc(C(=O)O)c3OB2O)c2cccc(N)c2)C(=O)C1=O (stereo partly drawn) [Example 72, (3R)-3-(2-(3-aminophenyl)-2-(4-ethyl-2,3-dioxopiperazine-1-carboxamido)acetamido)-2-hydroxy-3,4-dihydro-2H-benzo[e][1,2]oxaborinine-8-carboxylic acid] | > 128 | < 0.25 | 2 to 4 (≈ 3.82 to 7.64 µM) | 32 to 64 (≈ 61.1 to 122 µM) | 32 to 64 (≈ 61.1 to 122 µM) | 2 to 4 (≈ 3.82 to 7.64 µM) | > 128 | > 128 | 32 to 64 (≈ 61.1 to 122 µM) | 8 to 16 (≈ 15.3 to 30.6 µM) | > 128 | 2 to 4 (≈ 3.82 to 7.64 µM) | 16 to 32 (≈ 30.6 to 61.1 µM) |
